From patent publication US9757432B2, “Materials and methods useful for treating glioblastorna” (Ohio State Innovation Foundation, priority 2012, dated 2017)
Residues, ends and D or L forms follow the SMILES beside them. *: point of attachment. Cbz = O=C(OCc1ccccc1)*; CH2F = FC*

Tested on: glioma cells
Test: Rescue of SapC-DOPS-induced killing by pathway inhibitors
Type: cell-based
Details: inhibitor given with SapC-DOPS
From the text: Synergy analysis was completed using CompuSyn software.

CO/C1=C\C(C)=C\[C@@H](C)[C@@H](O)[C@@H](C)C/C(C)=C/C=C/[C@H](OC)[C@@H]([C@@H](C)[C@@H](O)[C@H](C)[C@@]2(O)C[C@@H](O)[C@H](C)[C@@H](C(C)C)O2)OC1=O [bafilomycin Al]
rescue of SapC-DOPS-induced killing: significant rescue

Cn1cnc(N)c2ncnc1-2 [3-methyladeneine]
rescue of SapC-DOPS-induced killing: significant rescue

COC(=O)C[C@H](NC(=O)[C@H](C)NC(=O)[C@@H](NC(=O)OCc1ccccc1)C(C)C)C(=O)CF [Z-VAD-FMK] (Cbz-Val-Ala-Asp(OMe)-CH2F)
rescue of SapC-DOPS-induced killing: did not rescue
